According to paper PMC10141620 (Viruses, 2023):
Converted amounts (≈) assume the structure as drawn. “Also recorded” adds a separate entry of the source. Like-named read-outs stand apart in the source and are kept apart here.

Assays:
[1] = test system: NL4-3ΔEnv-NanoLuc/MERS-CoV pseudovirus; experiment: microbe, parasite or virus in culture; type: cell-based; conditions: Middle East respiratory syndrome-related coronavirus
[2] = test system: NL4-3ΔEnv-NanoLuc/SARS-CoV-2 (USA-WA1/2020) pseudovirus; experiment: organism not typed; type: cell-based
in vitro [3] = conditions: human
[4] = test system: NL4-3ΔEnv-NanoLuc/SARS-CoV-1 pseudovirus; experiment: microbe, parasite or virus in culture; type: cell-based; conditions: Severe acute respiratory syndrome coronavirus
[5] = test system: SARS-CoV-2 spike (Wuhan-Hu-1) mediated cell-to-cell fusion, Jurkat donor / 293T/ACE2 acceptor cells; experiment: microbe, parasite or virus in culture; type: cell-based; conditions: for IC50: Severe acute respiratory syndrome coronavirus 2, 4 h, read-out: IC50, cell-to-cell fusion inhibition
in vitro [6] = conditions: human; remark: listed apart in the source
in vitro [7] = conditions: human; remark: listed apart in the source
in vitro [8] = conditions: human; remark: listed apart in the source
[9] = test system: NL4-3ΔEnvLuc/A-MLV pseudovirus; experiment: microbe, parasite or virus in culture; type: cell-based, amphotropic murine leukemia virus (A-MLV); conditions: 293T/ACE2, read-out: A-MLV IC50
in vitro [10] = conditions: human; remark: listed apart in the source
CYP2D6 = CYP2D6 (Homo sapiens, UniProt P10635); experiment: biochemical
Sequence of CYP2D6 (P10635 whole entry): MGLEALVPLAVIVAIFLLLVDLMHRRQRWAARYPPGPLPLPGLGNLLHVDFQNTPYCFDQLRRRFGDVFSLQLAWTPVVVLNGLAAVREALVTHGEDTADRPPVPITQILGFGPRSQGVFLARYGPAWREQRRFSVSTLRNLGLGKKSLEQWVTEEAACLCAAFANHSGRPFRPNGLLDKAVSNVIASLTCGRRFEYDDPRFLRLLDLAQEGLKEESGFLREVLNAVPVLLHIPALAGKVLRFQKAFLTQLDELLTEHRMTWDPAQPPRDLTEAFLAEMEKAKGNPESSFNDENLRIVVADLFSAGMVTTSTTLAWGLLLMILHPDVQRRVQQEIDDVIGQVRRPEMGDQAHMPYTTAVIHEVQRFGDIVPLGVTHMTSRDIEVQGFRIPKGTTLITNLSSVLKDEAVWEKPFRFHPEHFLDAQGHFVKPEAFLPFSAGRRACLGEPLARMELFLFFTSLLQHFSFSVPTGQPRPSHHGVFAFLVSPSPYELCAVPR

SARS-CoV-1 Urbani = experiment: microbe, parasite or virus in culture; type: cell-based; conditions: Severe acute respiratory syndrome coronavirus, Calu-3, read-out: IC50, SARS-CoV-1 Urbani
CYP2C19 = CYP2C19 (Homo sapiens, UniProt P33261); experiment: biochemical
Sequence of CYP2C19 (P33261 whole entry): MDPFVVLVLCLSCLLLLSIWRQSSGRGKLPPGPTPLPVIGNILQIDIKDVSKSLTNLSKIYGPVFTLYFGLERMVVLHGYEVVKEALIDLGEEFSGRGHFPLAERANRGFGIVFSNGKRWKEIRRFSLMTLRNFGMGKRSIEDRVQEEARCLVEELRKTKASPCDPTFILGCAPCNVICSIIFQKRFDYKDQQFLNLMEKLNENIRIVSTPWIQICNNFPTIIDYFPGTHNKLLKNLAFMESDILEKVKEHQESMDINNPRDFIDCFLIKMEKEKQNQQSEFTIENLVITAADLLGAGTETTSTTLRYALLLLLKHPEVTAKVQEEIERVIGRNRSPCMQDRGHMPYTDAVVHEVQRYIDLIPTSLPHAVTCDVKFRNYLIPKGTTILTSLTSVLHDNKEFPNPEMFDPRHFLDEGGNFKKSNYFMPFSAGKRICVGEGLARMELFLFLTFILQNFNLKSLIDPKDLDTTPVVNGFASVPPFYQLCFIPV

CYP2C9 = CYP2C9 (Homo sapiens, UniProt P11712); experiment: biochemical
Sequence of CYP2C9 (P11712 whole entry): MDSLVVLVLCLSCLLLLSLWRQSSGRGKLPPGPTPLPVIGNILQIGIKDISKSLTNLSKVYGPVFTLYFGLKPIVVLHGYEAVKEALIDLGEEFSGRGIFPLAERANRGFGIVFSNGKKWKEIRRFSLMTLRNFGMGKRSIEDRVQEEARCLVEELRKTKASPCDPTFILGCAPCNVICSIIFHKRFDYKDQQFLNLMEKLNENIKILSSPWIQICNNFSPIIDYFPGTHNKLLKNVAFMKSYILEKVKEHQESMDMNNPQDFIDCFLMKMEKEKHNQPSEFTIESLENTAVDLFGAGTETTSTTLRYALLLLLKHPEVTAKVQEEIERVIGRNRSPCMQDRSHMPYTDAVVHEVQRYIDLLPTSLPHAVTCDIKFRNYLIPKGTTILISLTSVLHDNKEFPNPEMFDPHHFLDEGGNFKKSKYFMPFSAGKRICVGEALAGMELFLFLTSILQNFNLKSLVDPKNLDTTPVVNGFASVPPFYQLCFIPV

in vitro [11] = conditions: human, microsomes, pH 7.4
[12] = pH 7.4
physchem = conditions: pH 7.4
in vitro [13] = conditions: human; remark: listed apart in the source
CYP2B6 = CYP2B6 (Homo sapiens, UniProt P20813); experiment: biochemical
Sequence of CYP2B6 (P20813 whole entry): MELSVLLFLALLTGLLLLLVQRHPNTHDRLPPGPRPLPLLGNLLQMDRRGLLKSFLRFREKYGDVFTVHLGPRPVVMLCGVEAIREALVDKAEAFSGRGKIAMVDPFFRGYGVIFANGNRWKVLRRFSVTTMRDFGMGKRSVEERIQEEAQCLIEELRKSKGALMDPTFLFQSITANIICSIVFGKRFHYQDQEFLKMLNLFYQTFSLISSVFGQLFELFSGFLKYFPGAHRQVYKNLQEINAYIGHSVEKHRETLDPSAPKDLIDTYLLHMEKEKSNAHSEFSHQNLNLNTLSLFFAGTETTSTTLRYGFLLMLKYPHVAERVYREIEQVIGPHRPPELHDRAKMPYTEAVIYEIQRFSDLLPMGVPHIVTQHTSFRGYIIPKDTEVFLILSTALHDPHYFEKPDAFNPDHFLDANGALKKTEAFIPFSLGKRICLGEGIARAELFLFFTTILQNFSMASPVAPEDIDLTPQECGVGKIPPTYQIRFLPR

in vitro [14] = conditions: human; remark: listed apart in the source
CYP1A2 = CYP1A2 (Homo sapiens, UniProt P05177); experiment: biochemical
Sequence of CYP1A2 (P05177 whole entry): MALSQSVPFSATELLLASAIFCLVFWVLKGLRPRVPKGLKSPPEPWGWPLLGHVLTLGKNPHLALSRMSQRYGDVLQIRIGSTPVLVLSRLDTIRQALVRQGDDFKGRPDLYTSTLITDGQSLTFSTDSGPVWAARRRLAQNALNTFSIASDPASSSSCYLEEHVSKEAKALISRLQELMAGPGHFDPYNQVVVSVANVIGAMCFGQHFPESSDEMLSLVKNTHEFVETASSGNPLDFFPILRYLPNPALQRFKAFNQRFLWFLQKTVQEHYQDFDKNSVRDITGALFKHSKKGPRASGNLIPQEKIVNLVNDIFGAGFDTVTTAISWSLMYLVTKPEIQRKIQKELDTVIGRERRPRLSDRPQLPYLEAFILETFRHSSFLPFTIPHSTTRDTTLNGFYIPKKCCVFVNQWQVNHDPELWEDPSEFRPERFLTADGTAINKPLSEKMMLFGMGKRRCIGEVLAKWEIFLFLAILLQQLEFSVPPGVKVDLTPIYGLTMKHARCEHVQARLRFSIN

MERS-CoV, EMC/2012 = experiment: microbe, parasite or virus in culture; type: cell-based; conditions: Middle East respiratory syndrome-related coronavirus, Calu-3, read-out: IC50, MERS-CoV
[15] = test system: SARS-CoV-2 strains, SARS-COV-1, and MERS-CoV pseudoviruses; experiment: organism not typed; type: cell-based; conditions: Calu-3, read-out: IC50, range over all the viral clones evaluated
CYP2C8 = CYP2C8 (Homo sapiens, UniProt P10632); experiment: biochemical
Sequence of CYP2C8 (P10632 whole entry): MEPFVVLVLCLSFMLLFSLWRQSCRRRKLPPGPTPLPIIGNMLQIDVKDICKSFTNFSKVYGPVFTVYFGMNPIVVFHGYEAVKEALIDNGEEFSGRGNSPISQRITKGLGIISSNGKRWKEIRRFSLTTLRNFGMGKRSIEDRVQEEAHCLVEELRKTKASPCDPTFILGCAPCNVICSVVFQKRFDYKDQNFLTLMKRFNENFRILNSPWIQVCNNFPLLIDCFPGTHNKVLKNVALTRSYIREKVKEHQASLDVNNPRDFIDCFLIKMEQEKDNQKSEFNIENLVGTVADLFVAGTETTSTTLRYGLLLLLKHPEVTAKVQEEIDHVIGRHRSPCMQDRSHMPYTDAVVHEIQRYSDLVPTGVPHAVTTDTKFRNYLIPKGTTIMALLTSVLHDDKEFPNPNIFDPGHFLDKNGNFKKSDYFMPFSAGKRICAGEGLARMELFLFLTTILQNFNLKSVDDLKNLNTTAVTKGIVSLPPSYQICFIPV

Plasma protein binding = conditions: human, pH 7.4
[16] = Caco-2, read-out: MERS-CoV IC50
[17] = Calu-3, read-out: MERS-CoV IC50
[18] = Calu-3, read-out: SARS-CoV-2 USA-WA1/2020 IC50
[19] = Pseudovirus, 293T/ACE2, read-out: IC50, range over both cell lines
[20] = 293T/ACE2, read-out: SARS-CoV-1 IC50
[21] = A549-ACE2, read-out: SARS-CoV-1 IC50
[22] = Calu-3, read-out: SARS-CoV-1 IC50

Compound | IC50 [1, 16] | IC50 [1, 17] | IC50 ([1]; MRC5, read-out: MERS-CoV IC50) | IC50 [2, 18] | IC50 ([2]; Pseudovirus, 293T/ACE2) | IC50 ([2]; Pseudovirus, A549-ACE2) | CC50 (in vitro [3]) | IC50 [4, 20] | IC50 [4, 21] | IC50 [4, 22] | IC50 [5] | CC50 (in vitro [6]) | CC50 (in vitro [7]) | CC50 (in vitro [8]) | IC50 [9] | CC50 (in vitro [10]) | other results
Cc1ccc2nc3s/c(=C/c4coc(-c5ccc(Cl)c(C(=O)O)c5)c4)c(=O)n3c2c1 [NBCoV35] | 472 ± 43 nM | 1670 ± 225 nM | 715 ± 43 nM | 360 ± 35 nM | 198 ± 9 nM | 126 ± 3 nM | > 50000 nM | 380 ± 69 nM | 363 ± 11 nM | 1250 ± 45 nM | 2800 nM | ~50000 nM | > 50000 nM | > 50000 nM | 1820 ± 25 nM | ~50000 nM | IC50 [2, 19]: 66 to 198 nM; IC50, cell-to-cell fusion inhibition ([5]; 4 h): the least active
O=C(O)c1cc(-c2ccc(/C=c3\sc4nc(=O)c5c6c(sc5n4c3=O)CCCC6)o2)ccc1Cl [NBCoV36] | 428 ± 34 nM | 589 ± 117 nM | 837 ± 38 nM | 433 ± 49 nM | 330 ± 18 nM | 227 ± 18 nM | > 50000 nM | 660 ± 30 nM | 147 ± 19 nM | 627 ± 58 nM | 900 nM | > 50000 nM | > 50000 nM | > 50000 nM | 3300 ± 100 nM | 43000 ± 900 nM | –
Cc1cc(C)c2nc3s/c(=C\c4ccc(-c5ccc(Cl)c(C(=O)O)c5)o4)c(=O)n3c2c1 [NBCoV37] | 161 ± 53 nM | 877 ± 50 nM | 229 ± 20 nM | 368 ± 45 nM | 66 ± 2 nM | 145 ± 12 nM | > 50000 nM | 340 ± 34 nM | 95 ± 1 nM | 1000 ± 132 nM | 1400 nM | ~50000 nM | 48000 ± 2000 nM | > 50000 nM | 1510 ± 88 nM | 42500 ± 2000 nM | IC50 ([1]; read-out: MERS-CoV IC50, range over both cell lines): 161 to 229 nM; IC50 [2, 19]: 66 to 198 nM
O=C(O)c1cc(C(=O)O)cc(-c2ccc(C=c3sc4nc5ccccc5n4c3=O)o2)c1 [NBCoV62] | – | – | – | – | > 10000 nM | > 10000 nM | – | – | – | – | – | > 50000 nM | – | – | – | > 50000 nM | –
Cc1cc2nc3s/c(=C/c4ccc(-c5cccc(C(=O)O)c5)o4)c(=O)n3c2cc1C [NBCoV63] | 75 ± 25 nM | 220 ± 30 nM | 102 ± 1 nM | 120 ± 6 nM | 80 ± 7 nM | 55 ± 3 nM | > 50000 nM | 110 ± 0.5 nM | 59 ± 1.5 nM | 133 ± 28 nM | 900 nM | ≥ 50000 nM | > 50000 nM | 50000 nM | 303 ± 29 nM | ≥ 50000 nM | IC50 (CYP2D6): > 25000 nM; antiviral activity (in words) [2]: Active; IC50 (SARS-CoV-1 Urbani): 3980 nM; IC50 (CYP2C19): > 25000 nM; IC50 (CYP2C9): > 25000 nM; half-life (in vitro [11]): > 3 h; microsomal CLint (in vitro [11]): 3.4 µL/min/mg; solubility [12]: low; solubility (physchem): 6.25 µM (≈ 2.6 µg/mL); CC50 (in vitro [13]): > 50000 nM; IC50 (CYP2B6): > 25000 nM; efflux ratio (in vitro [14]; Caco-2): 42.3; Papp A→B (in vitro [14]; Caco-2, pH 7.4): 0.00242 ×10⁻⁶ cm/s; Papp B→A (in vitro [14]; Caco-2, pH 7.4): 0.19 ×10⁻⁶ cm/s; IC50 (CYP1A2): > 25000 nM; IC50 (MERS-CoV, EMC/2012): 8010 nM; IC50 [15]: 120 to 220 nM; IC50 (CYP2C8): > 25000 nM; fraction unbound at 4 h, 5 µM (Plasma protein binding): < 0.005
Cc1cc2nc3s/c(=C\c4ccc(-c5ccc6c(c5)COC6=O)o4)c(=O)n3c2cc1C [NBCoV65] | – | – | – | – | > 10000 nM | > 10000 nM | – | – | – | – | – | > 50000 nM | – | – | – | > 50000 nM | –
O=c1/c(=C/c2ccc(-c3ccccc3)o2)sc2nc3ccccc3n12 [NBCoV66] | – | – | – | – | > 10000 nM | > 10000 nM | – | – | – | – | – | > 50000 nM | – | – | – | > 50000 nM | antiviral activity (in words) [2]: no antiviral activity; also recorded: Inactive
Cc1ccc2c(nc3s/c(=C\c4ccc(-c5ccccc5C(=O)O)o4)c(=O)n32)c1C [NBCoV68] | – | – | – | – | 3900 ± 100 nM | 2300 ± 70 nM | – | – | – | – | – | > 50000 nM | – | – | – | > 50000 nM | –
Cc1ccc2c(nc3s/c(=C/c4ccc(-c5ccc(C(=O)O)cc5)o4)c(=O)n32)c1C [NBCoV69] | – | – | – | – | 2550 ± 105 nM | 3000 ± 400 nM | – | – | – | – | – | > 50000 nM | – | – | – | > 50000 nM | –
Cc1cc(C(=O)O)ccc1-c1ccc(/C=c2\sc3nc4ccccc4n3c2=O)o1 [NBCoV70] | – | – | – | – | 9500 ± 1000 nM | > 10000 nM | – | – | – | – | – | > 50000 nM | – | – | – | > 50000 nM | –
O=c1/c(=C\c2ccc(-c3cccc(Cl)c3)o2)sc2nc3ccccc3n12 [NBCoV71] | – | – | – | – | > 10000 nM | > 10000 nM | – | – | – | – | – | – | – | – | – | – | –
